Each compound was assayed on mutant Huntington (HTT) protein (assay: HTT Mutant HTRF iPSC assay (mHTT protein lowering)). Conditions: human iPSC derived from a HTT patient with a poly-Q49 mutation.
Type: cell-based
In the case of `Cn1cc2c(F)cc(-c3cc(F)c4nc(C5CCNCC5)cn4c3)cc2n1` [Compound 86, 4-fluoro-6-(8-fluoro-2-(piperidin-4-yl)imidazo[1,2-a]pyridin-6-yl)-2-methyl-2H-indazole], the IC50 is reported as 1 to 9 µM. With `COCCN1CCC(c2nc3c(F)cc(-c4cc(C)c5nc(C)cn5n4)cn3n2)CC1` [Compound 439, 6-(2,8-dimethylimidazo[1,2-b]pyridazin-6-yl)-8-fluoro-2-[1-(2-methoxyethyl)-4-piperidyl]-[1,2,4]triazolo[1,5-a]pyridine] the IC50 was 0.1 to 1 µM. In the case of `Cc1cn2nc(-c3cc(F)c4[nH]c(C5CCNCC5)nc4c3)cc(C)c2n1` [Compound 140, 6-(7-fluoro-2-(piperidin-4-yl)-1H-benzo[d]imidazol-5-yl)-2,8-dimethylimidazo[1,2-b]pyridazine], the IC50 is reported as < 0.1 µM. With `CCN1CCC(Nc2nc3c(F)cc(-c4cc(C)c5nc(C)cn5n4)cc3o2)CC1` [Compound 479, 6-(2,8-dimethylimidazo[1,2-b]pyridazin-6-yl)-N-(1-ethylpiperidin-4-yl)-4-fluorobenzo[d]oxazol-2-amine] the IC50 was < 0.1 µM. `COCCN1CCC(c2nc3cc(-c4cc(C)c5nc(C)cn5n4)cc(F)c3[nH]2)CC1` [Compound 417, 6-(7-fluoro-2-(1-(2-methoxyethyl)piperidin-4-yl)-1H-benzo[d]imidazol-5-yl)-2,8-dimethylimidazo[1,2-b]pyridazine] gave an IC50 of 0.1 to 1 µM. In the case of `Cc1cn2nc(-c3cc(F)c4nc([C@H]5[C@@H]6CN(C)C[C@@H]65)cn4c3)cc2c(C)n1` [Compound 222, 2-(8-fluoro-2-((1R,5S,6r)-3-methyl-3-azabicyclo[3.1.0]hexan-6-yl)imidazo[1,2-a]pyridin-6-yl)-4,6-dimethylpyrazolo[1,5-a]pyrazine], the IC50 is reported as < 0.1 µM. Work on `Cc1cn2nc(-c3cc(F)c4nc(NC(=O)C5CCCNC5)nn4c3)cc(C)c2n1` (single isomer, unassigned) [Compound 316] yielded an IC50 of 0.1 to 1 µM. Work on `Cc1cn2nc(-c3cc(F)c4nc(NC(=O)C5CC56CNC6)nn4c3)cc(C)c2n1` (stereo not drawn) [Compound 318] yielded an IC50 of 1 to 9 µM. For `Cc1cn2nc(-c3cc(F)c4nc(C5CC6(CCNCC6)C5)cn4c3)cc(C)c2n1` [Compound 78, 6-(8-fluoro-2-(7-azaspiro[3.5]nonan-2-yl)imidazo[1,2-a]pyridin-6-yl)-2,8-dimethylimidazo[1,2-b]pyridazine], the IC50 was < 0.1 µM. With `Cc1cn2nc(-c3cc(F)c4nc(N5CCC6(CCCN6C)CC5)oc4c3)cc(C)c2n1` [Compound 514, 6-(2,8-dimethylimidazo[1,2-b]pyridazin-6-yl)-4-fluoro-2-(1-methyl-1,8-diazaspiro[4.5]decan-8-yl)benzo[d]oxazole] the IC50 was < 0.1 µM. For `Cc1cn2nc(-c3cc(F)c4[nH]c(C5CC6CC(N)C6C5)nc4c3)cc(C)c2n1` (stereo not drawn) [Compound 423, 3-(5-(2,8-dimethylimidazo[1,2-b]pyridazin-6-yl)-7-fluoro-1H-benzo[d]imidazol-2-yl)bicyclo[3.2.0]heptan-6-amine], the IC50 was 0.1 to 1 µM. `Cc1cn2nc(-c3cc(F)c4nc(NC(=O)C5CN(CCF)C5)cn4c3)cc(C)c2n1` [Compound 266, N-(6-(2,8-dimethylimidazo[1,2-b]pyridazin-6-yl)-8-fluoroimidazo[1,2-a]pyridin-2-yl)-1-(2-fluoroethyl)azetidine-3-carboxamide] was tested, and the IC50 was < 0.1 µM. `Cc1cn2nc(-c3cc(F)c4nc(C[C@H]5C[C@H](N)C5)nn4c3)cc(C)c2n1` [Compound 449, (1r,3r)-3-((6-(2,8-dimethylimidazo[1,2-b]pyridazin-6-yl)-8-fluoro-[1,2,4]triazolo[1,5-a]pyridin-2-yl)methyl)cyclobutan-1-amine] was tested, and the IC50 was 0.1 to 1 µM. Compound `Cc1cn2nc(-c3cc(F)c4nc(C5CC6(CNC6)C5)cn4c3)cc(C)c2n1` [Compound 107] has an IC50 of 0.1 to 1 µM. `Cn1cc2cc(-c3cc(F)c4nc(C56CNC(C5)C6)cn4c3)cc(F)c2n1` [Compound 67] was tested, and the IC50 was 1 to 9 µM. `Cc1cn2nc(-c3cc(F)c4nc(C5CCN(C6CC6)CC5)cn4c3)cc(C(F)F)c2n1` [Compound 167, 6-(2-(1-cyclopropylpiperidin-4-yl)-8-fluoroimidazo[1,2-a]pyridin-6-yl)-8-(difluoromethyl)-2-methylimidazo[1,2-b]pyridazine] was tested, and the IC50 was < 0.1 µM. `CCN1CCC(c2nc3c(F)cc(-c4cc(C)c5nc(C)cn5n4)cn3n2)CC1` [Compound 435, 6-(2,8-dimethylimidazo[1,2-b]pyridazin-6-yl)-2-(1-ethylpiperidin-4-yl)-8-fluoro-[1,2,4]triazolo[1,5-a]pyridine] was tested, and the IC50 was 0.1 to 1 µM. With `Cc1cn2nc(-c3cc(F)c4nc([C@@H]5C6CCN(C)CC65)cn4c3)cc(C)c2n1` (stereo partly drawn) [Compound 231, 6-(8-fluoro-2-((7R)-3-methyl-3-azabicyclo[4.1.0]heptan-7-yl)imidazo[1,2-a]pyridin-6-yl)-2,8-dimethylimidazo[1,2-b]pyridazine] the IC50 was < 0.1 µM. With `Cc1cn2nc(-c3cc(F)c4nc(C5CCNC(C)(C)C5)cn4c3)ccc2n1` (stereo not drawn) [Compound 62, 6-(2-(2,2-dimethylpiperidin-4-yl)-8-fluoroimidazo[1,2-a]pyridin-6-yl)-2-methylimidazo[1,2-b]pyridazine] the IC50 was < 0.1 µM. `Fc1cc(-c2ccc3nonc3c2)cn2cc(C3CCNCC3)nc12` [Compound 51, 5-(8-fluoro-2-(piperidin-4-yl)imidazo[1,2-a]pyridin-6-yl)benzo[c][1,2,5]oxadiazole] gave an IC50 of 1 to 9 µM. With `Cc1cn2nc(-c3cc(F)c4nc(NC(=O)C5CNC5)cn4c3)cc(C)c2n1` [Compound 294, N-[6-(2,8-dimethylimidazo[1,2-b]pyridazin-6-yl)-8-fluoro-imidazo[1,2-a]pyridin-2-yl]azetidine-3-carboxamide] the IC50 was < 0.1 µM. With `Cc1cn2nc(-c3cc(F)c4nc(NC5CCNC(C)(C)C5)oc4c3)cc(C)c2n1` (stereo not drawn) [Compound 485, 6-(2,8-dimethylimidazo[1,2-b]pyridazin-6-yl)-N-(2,2-dimethylpiperidin-4-yl)-4-fluorobenzo[d]oxazol-2-amine] the IC50 was < 0.1 µM. Work on `CCN1CCC(n2nc3cc(-c4cc(C(F)F)c5nc(C)cn5n4)cc(F)c3n2)CC1` [Compound 377, 6-(8-(difluoromethyl)-2-methylimidazo[1,2-b]pyridazin-6-yl)-2-(1-ethylpiperidin-4-yl)-4-fluoro-2H-benzo[d][1,2,3]triazole] yielded an IC50 of 0.1 to 1 µM. With `Cc1cn2nc(-c3cc(F)c4nc(NC(=O)C5CCCCNC5)nn4c3)cc(C)c2n1` (stereo not drawn) [Compound 321, N-(6-(2,8-dimethylimidazo[1,2-b]pyridazin-6-yl)-8-fluoro-[1,2,4]triazolo[1,5-a]pyridin-2-yl)azepane-3-carboxamide] the IC50 was 0.1 to 1 µM. Work on `Cc1cn2nc(-c3cc(F)c4nn(C5CC6CNCC65)nc4c3)cc(C)c2n1` (racemic) [Compound 397, 2-(3-azabicyclo[3.2.0]heptan-6-yl)-6-(2,8-dimethylimidazo[1,2-b]pyridazin-6-yl)-4-fluoro-2H-benzo[d][1,2,3]triazole] yielded an IC50 of 0.1 to 1 µM. For `Cn1cc2cc(-c3cc(F)c4nc(C5CCNC5)cn4c3)ccc2n1` (stereo not drawn) [Compound 65, 5-(8-fluoro-2-(pyrrolidin-3-yl)imidazo[1,2-a]pyridin-6-yl)-2-methyl-2H-indazole], the IC50 was 1 to 9 µM. With `Cc1cn2nc(-c3cc(F)c4nc(C5CCNCC5)cn4c3)c(C)cc2n1` [Compound 101, 6-(8-fluoro-2-(piperidin-4-yl)imidazo[1,2-a]pyridin-6-yl)-2,7-dimethylimidazo[1,2-b]pyridazine] the IC50 was 1 to 9 µM.

From patent US20250353841A1 (BIOGEN MA INC., priority 2022, published 2025)
